From DBAASP come the findings set out here.

For orientation: MIC means the least concentration at which growth counts as inhibited. Lower therefore signals greater potency.

Values after ≈ are worked out from the molar mass of the structure shown.

Among the test systems are Micrococcus luteus; Staphylococcus aureus; Bacillus subtilis 168.
Common to all, as to test: ≥ marks a high value that may be exact or a test limit, other limits are often not marked, values filed in µg/mL are converted to µM
In test [1] the test system is Bacillus subtilis ATCC 23857.
In test [2] the test system is Escherichia coli ATCC 25922.
Test [3] deals with Staphylococcus aureus ATCC 29213.
In test [4] the test system is Staphylococcus epidermidis ATCC 12228.
Test [5] relates to Staphylococcus aureus ATCC 25923.
The test system of test [6] is Pseudomonas aeruginosa CMCCB 10104.
Test [7] concerns Candida albicans ATCC 2002.

As to `CC[C@H](C)[C@H](N)C(=O)N[C@@H](CC(=O)O)C(=O)N[C@@H](Cc1c[nH]c2ccccc12)C(=O)N[C@@H](CCCCN)C(=O)N[C@@H](CCCCN)C(=O)N[C@@H](CC(C)C)C(=O)N1CCC[C@H]1C(=O)N[C@@H](CC(=O)O)C(=O)N[C@@H](C)C(=O)N[C@@H](C)C(=O)N[C@@H](CCCCN)C(=O)N[C@@H](CCC(N)=O)C(=O)N[C@H](C(=O)N[C@@H](CC(C)C)C(N)=O)[C@@H](C)CC` [IDWKKLPDAAKQIL], the minimum inhibitory concentration (MIC) in test [1] is at least 512 µM; in [2] it was 1020 µM (≈ 1680 µg/mL); in test [3], over 1020 µM; in test [4], over 1020 µM.

As to `CC[C@H](C)[C@H](NC(=O)CN)C(=O)N[C@@H](C)C(=O)N[C@@H](C)C(=O)NCC(=O)N[C@H](C(=O)N[C@H](C(=O)N[C@H](C(=O)N[C@@H](CCCCN)C(=O)N[C@H](C(=O)N[C@@H](CCCCN)C(=O)N[C@@H](CCCCN)C(N)=O)[C@@H](C)CC)[C@@H](C)CC)[C@@H](C)CC)[C@@H](C)CC` [GIAAGIIIKIKK], the results for the MIC in test [1] and in [2] were at least 32 µM and 32 µM (≈ 39.2 µg/mL), respectively.

In the case of `CC[C@H](C)[C@H](NC(=O)CN)C(=O)N[C@H](C(=O)N[C@@H](C)C(=O)N[C@@H](C)C(=O)N[C@H](C(=O)N[C@H](C(=O)N[C@H](C(=O)N[C@@H](CCCCN)C(=O)N[C@H](C(=O)N[C@@H](CCCCN)C(=O)N[C@@H](CCCCN)C(N)=O)[C@@H](C)CC)[C@@H](C)CC)[C@@H](C)CC)[C@@H](C)CC)[C@@H](C)CC` [GIIAAIIIKIKK], the results for the minimum inhibitory concentration (MIC) in [1] and in test [2] were 16 µM (≈ 20.5 µg/mL) and over 128 µM, respectively.

Consider `CC[C@H](C)[C@H](NC(=O)CNC(=O)[C@H](CO)NC(=O)[C@@H](NC(=O)[C@H](CC(C)C)NC(=O)[C@H](CCC(=O)O)NC(=O)[C@H](CO)NC(=O)[C@H](C)NC(=O)[C@H](CCCCN)NC(=O)[C@H](CC(=O)O)NC(=O)[C@H](CCCCN)NC(=O)[C@@H](NC(=O)[C@H](CCCCN)NC(=O)[C@H](CCC(N)=O)NC(=O)[C@H](Cc1c[nH]c2ccccc12)NC(=O)[C@H](CC(C)C)NC(=O)CN)[C@@H](C)CC)C(C)C)C(=O)N[C@H](C(=O)N[C@@H](CCC(=O)O)C(=O)NCC(=O)N[C@H](C(=O)N[C@@H](CCCCN)C(N)=O)C(C)C)C(C)C` [GLWQKIKDKASELVSGIVEGVK], for which the MIC in the test with Micrococcus luteus was found to be 0.168 µM (≈ 0.4 µg/mL).

As to `CC(C)C[C@H](NC(=O)[C@H](CCC(=O)O)NC(=O)[C@@H]1CCCN1C(=O)[C@H](CCC(=O)O)NC(=O)[C@@H](NC(=O)[C@H](C)NC(=O)[C@H](C)NC(=O)[C@@H](N)CC(=O)O)C(C)C)C(=O)N[C@@H](Cc1ccc(O)cc1)C(=O)N[C@@H](Cc1cnc[nH]1)C(=O)N[C@@H](Cc1c[nH]c2ccccc12)C(=O)NCC(=O)N[C@@H](CCCCN)C(=O)N[C@H](C(=O)N[C@@H](Cc1c[nH]c2ccccc12)C(=O)N[C@@H](CC(C)C)C(=O)N1CCC[C@H]1C(=O)N[C@@H](CC(N)=O)C(=O)O)C(C)C` [DAAVEPELYHWGKVWLPN], the minimum inhibitory concentration (MIC) is over 94.1 µM in test [5], over 94.1 µM in test [2], at least 94.1 µM in [6] and at least 94.1 µM in test [7].

`CC[C@H](C)[C@H](NC(=O)[C@H](CC(C)C)NC(=O)[C@H](CCC(N)=O)NC(=O)[C@@H](NC(=O)[C@H](C)NC(=O)CNC(=O)[C@H](CCCCN)NC(=O)[C@@H](NC(=O)[C@H](CC(C)C)NC(=O)[C@@H](NC(=O)[C@H](Cc1ccccc1)NC(=O)[C@@H](NC(=O)CN)C(C)C)[C@@H](C)O)[C@@H](C)CC)[C@@H](C)O)C(=O)NCC(=O)N[C@@H](CCCCN)C(=O)N[C@H](C(=O)N[C@@H](CC(C)C)C(=O)NCC(=O)N[C@@H](CCCCN)C(=O)N[C@@H](CCC(=O)O)C(=O)N[C@H](C(=O)NCC(=O)N[C@@H](CCCCN)C(=O)N[C@H](C(=O)NCC(=O)N[C@@H](CC(C)C)C(=O)N[C@@H](CCC(=O)O)C(=O)N[C@@H](CC(C)C)C(=O)N[C@@H](CCSC)C(=O)N[C@@H](C)C(=O)N[C@H]1CSSC[C@@H](C(=O)O)NC(=O)[C@H](CCC(N)=O)NC(=O)[C@H](CCCCN)NC(=O)[C@H]([C@@H](C)O)NC(=O)[C@H]([C@@H](C)CC)NC(=O)[C@H](CCCCN)NC1=O)[C@@H](C)O)C(C)C)[C@@H](C)O` [GVFTLIKGATQLIGKTLGKEVGKTGLELMACKITKQC]: the minimal inhibitory concentration (MIC) worked out at 1.06 µM (≈ 4.1 µg/mL) in test [5], 2.09 µM (≈ 8.1 µg/mL) in [2], 4.18 µM (≈ 16.2 µg/mL) in [6] and 2.09 µM (≈ 8.1 µg/mL) in test [7].

In the case of `CSCC[C@H](NC(=O)[C@H](C)NC(=O)[C@H](CCCCN)NC(=O)[C@H](CCCN=C(N)N)NC(=O)[C@H](C)NC(=O)[C@H](CCCN=C(N)N)NC(=O)[C@H](CCC(=O)O)NC(=O)[C@@H](NC(=O)[C@H](CCCCN)NC(=O)CNC(=O)CNC(=O)CNC(=O)[C@H](Cc1ccccc1)NC(=O)[C@H](CCCCN)NC(=O)[C@@H](N)CCCCN)[C@@H](C)O)C(=O)N[C@@H](C)C(=O)N[C@H](C(=O)N[C@@H](CCC(=O)O)C(=O)O)C(C)C` [KKFGGGKTERARKAMAVE], the MIC in [2] was 31.8 µM (≈ 62.5 µg/mL); with Staphylococcus aureus, 7.94 µM (≈ 15.6 µg/mL); with Bacillus subtilis 168, 7.94 µM (≈ 15.6 µg/mL); with Micrococcus luteus, 31.8 µM (≈ 62.5 µg/mL).

With `CC[C@H](C)[C@H](NC(=O)[C@H](C)NC(=O)[C@H](CC(C)C)NC(=O)[C@H](CCC(=O)O)NC(=O)[C@H](CCCCN)NC(=O)[C@H](Cc1ccccc1)NC(=O)[C@@H](NC(=O)[C@H](CO)NC(=O)[C@H](CC(C)C)NC(=O)[C@H](Cc1ccccc1)NC(=O)[C@@H](N)CO)[C@@H](C)O)C(=O)N[C@@H](CC(N)=O)C(=O)N[C@@H](C)C(=O)N[C@@H](C)C(=O)N[C@@H](CCCCN)C(=O)N[C@@H](CC(N)=O)C(=O)N[C@@H](C)C(=O)NCC(=O)N[C@@H](CCC(N)=O)C(=O)N[C@@H](CO)C(=O)N[C@@H](CC(C)C)C(=O)N[C@@H](CC(C)C)C(=O)N[C@@H](Cc1cnc[nH]1)C(=O)N[C@H](C(=O)N[C@@H](CC(C)C)C(=O)N[C@@H](CO)C(=O)N[C@H]1CSSC[C@@H](C(=O)O)NC(=O)[C@H]([C@@H](C)O)NC(=O)[C@H](CCCCN)NC(=O)[C@H](CC(=O)O)NC(=O)[C@H](CC(C)C)NC(=O)[C@H](CCCCN)NC1=O)[C@@H](C)O` [SFLSTFKELAINAAKNAGQSLLHTLSCKLDKTC], the MIC in test [5] amounted to 2.22 µM (≈ 7.9 µg/mL); in test [2], 4.45 µM (≈ 15.8 µg/mL); in [6], 2.22 µM (≈ 7.9 µg/mL); in [7], 4.45 µM (≈ 15.8 µg/mL).

For `CC[C@H](C)[C@@H]1NC(=O)[C@H](CCCCN)NC(=O)[C@@H](NC(=O)[C@H](CCCCN)NC(=O)[C@H](CC(C)C)NC(=O)[C@H](CC(N)=O)NC(=O)[C@H](CC(=O)O)NC(=O)[C@H](CC(C)C)NC(=O)[C@H](CC(C)C)NC(=O)[C@@H](NC(=O)[C@@H](NC(=O)[C@H](C)NC(=O)[C@H](CCSC)NC(=O)[C@H](CC(N)=O)NC(=O)[C@H](CCCCN)NC(=O)[C@H](C)NC(=O)[C@@H](NC(=O)[C@H](CC(N)=O)NC(=O)[C@H](CCCCN)NC(=O)[C@H](C)NC(=O)[C@@H](NC(=O)[C@H](CC(=O)O)NC(=O)[C@H](CCSC)NC(=O)[C@H](Cc2ccccc2)NC(=O)CN)[C@@H](C)O)C(C)C)C(C)C)[C@@H](C)O)CSSC[C@@H](C(=O)O)NC(=O)[C@H](C)NC(=O)[C@H](CCCCN)NC(=O)[C@H]([C@@H](C)O)NC1=O` [GFMDTAKNVAKNMAVTLLDNLKCKITKAC], the MIC is 1.21 µM (≈ 3.8 µg/mL) in [5], 2.39 µM (≈ 7.5 µg/mL) in test [2], 2.39 µM (≈ 7.5 µg/mL) in test [6] and 1.21 µM (≈ 3.8 µg/mL) in test [7].
